According to US9096607B2, “Tumor necrosis factor inhibitors” (THE TRUSTEES OF THE UNIVERSITY OF PENNSYLVANIA, priority 2005, dated 2015):
Positions count from the first letter of the chain named.

Tests used:
wild type TNF-R1 = molecular target: T1, wild type TNF-R1 (Homo sapiens, UniProt P19438); experiment: Surface plasmon resonance, TNF-α binding to wild type TNF-R1; conditions: SPR
T1 construct: The ectodomain of wild type TNF receptor 1 was obtained by PCR from pKP13; made in house
T1 sequence (P19438 30-211 limits assumed): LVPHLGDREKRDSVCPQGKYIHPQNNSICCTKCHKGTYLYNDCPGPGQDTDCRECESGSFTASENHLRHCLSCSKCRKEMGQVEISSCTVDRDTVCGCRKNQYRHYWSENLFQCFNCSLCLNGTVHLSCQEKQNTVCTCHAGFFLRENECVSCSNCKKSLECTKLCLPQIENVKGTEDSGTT
Source text: (§1) Mutations of the TNF-R1 receptor were made at residues 82Q and 112F in the cavity, which were mutated to 82E and 112E respectively. The structural integrity of the mutant receptor was verified by ligand binding in surface plasmon resonance (SPR) studies. […] TNF-α retained the ability to bind to the mutant receptor, albeit with somewhat reduced affinity. These studies confirm that the test compound bound to a single and specific cavity on wild type TNF-R1.
(§2) Recombinant TNF receptor wild type and mutant were immobilized to the CM5 sensor chip with a surface density of 2,000 resonance units. The binding affinity of TNF-α to TNF-R1 was estimated by BiaCORE 3000 (BiaCORE, Uppsala, Sweden) at 25° C. The apparent rate constants (kon and koff) and the equilibrium binding constant (Kd) for TNF/TNF-R binding interaction were estimated from the kinetic analysis of sensorgrams, using the BIA evaluation 3.0 software (BiaCORE).

mutant TNF-R1 = molecular target: T2, mutant TNF-R1 (Homo sapiens, UniProt P19438, F141E/Q111E); experiment: Surface plasmon resonance, TNF-α binding to mutant TNF-R1; conditions: SPR, mutant TNF-R1 (82E, 112E)
T2 construct: The ectodomain of wild type TNF receptor 1 was obtained by PCR from pKP13; made in house
T2 sequence (P19438 30-211 Q111E/F141E limits assumed): T1 sequence (P19438 30-211 limits assumed) with Q82E, F112E
Source text: as §1, §2

Substance TNF-α has a Kd (wild type TNF-R1) of 0.000379 µM and a Kd (mutant TNF-R1) of 4.65 µM.
